Literature values, collected in paper PMC7493416 (ACS Sustainable Chemistry & Engineering, 2019).

Tests used:
[1] = general statement, no reference given

| Structure (SMILES) | Reproductive toxicity | Solubility in water [1] |
| --- | --- | --- |
| CN(C)C=O [DMF, dimethylformamide] | display reproductive toxicity |  |
| CN1CCCC1=O [NMP, N-methylpyrrolidone] | display reproductive toxicity |  |
| O=C1CCCCCC1 [cycloheptanone] |  | insoluble in water |
